Measurements published in US11976075B2, “Inhibitors of the MYST family of lysine acetyl transferases” (Isosterix, Inc., priority 2022, dated 2024).

What follows are molecules tested against T1, Recombinant KAT6A/MOZ (488-778) protein (Homo sapiens, UniProt Q92794) (assay: Kat6a AlphaLISA Inhibition Screening Assay). Details: 10′ pre-incubation; Table 2; read-out: Kat6A biochemical assay: IC50.
T1 construct: Recombinant KAT6A/MOZ (488-778) protein (Active motif, Catalog #81223); purchased Active Motif 81223
Format: biochemical
Protocol: The Kat6a inhibitory activity of test compounds was determined using an Alpha Screen-based detection method. The assay reactions were conducted in a volume of 10 μL in Alpha Plate, White 384 well plate (cat #6008280, Perkin Elmer). The enzymatic reactions were performed in assay buffer pH 8.0 (50 mM Tris-HCl, 0.1 mM EDTA, 0.01% Tween-20, 1 mM Dithiothreitol, 0.1% BSA (fatty acid free) and 330 nM TSA (Trichostatin A)). 10 μL reaction volume consisting of 25 nM of Recombinant KAT6A/MOZ (488-778) protein (Active motif, Catalog #81223), 400 nM Acetyl coenzyme A (Catalog #A2056, Sigma), 200 nM of Histone H3 peptide [(amino acids 1-21), biotin-labeled (BPS Biosciences, Catalog #52011,)] and a 10-point dose response curve for test/tool compounds were prepared. Enzyme and compounds solution were pre-incubated in assay plate for 60 or 10 min at room temperature then substrate and Acetyl coenzyme A solution were added to the plate. After addition, the plate was sealed with adhesive seals and incubated for 120 minutes at room temperature.
After 120 minutes of incubation, 5 μL (10 μg/mL) of AlphaLISA anti-acetyl-Lysine acceptor beads (Perkin Elmer, Catalog #AL143C) were added to the plate and it was incubated for 60 minutes at room temperature. Then 10 μL (10 μg/mL) of Alpha Streptavidin donor beads (Perkin Elmer, Catalog #6760002S) were added to the plate which was further incubated for 60 minutes at room temperature. After incubation, the alpha signal was recorded by using Perkin Elmer Envision multi-mode reader.
NA means the compound was not active at the concentration tested. […] NT means not tested.

T1 sequence (Q92794 488-778): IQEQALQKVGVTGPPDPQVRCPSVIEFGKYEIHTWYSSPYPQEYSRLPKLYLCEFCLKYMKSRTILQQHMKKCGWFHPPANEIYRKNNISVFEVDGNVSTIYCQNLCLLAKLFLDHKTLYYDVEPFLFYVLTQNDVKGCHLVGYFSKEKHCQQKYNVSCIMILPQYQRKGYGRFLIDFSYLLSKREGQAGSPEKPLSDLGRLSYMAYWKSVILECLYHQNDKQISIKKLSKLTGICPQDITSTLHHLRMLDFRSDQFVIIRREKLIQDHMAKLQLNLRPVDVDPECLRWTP

Compound	IC50
C=CC(=O)N1CCC(C(=O)NCc2ccc3cc(C(=O)NS(=O)(=O)c4ccccc4F)oc3c2)CC1 [Synthetic Example 14, 1-acryloyl-N-((2-(((2-fluorophenyl)sulfonyl)carbamoyl)benzofuran-6-yl)methyl)piperidine-4-carboxamide]	20 to 50 µM
C=CC(=O)NCC(=O)NCc1ccc2cc(C(=O)NS(=O)(=O)c3ccccc3F)oc2c1 [Synthetic Example 39, 6-((2-acrylamidoacetamido)methyl)-N-((2-fluorophenyl)sulfonyl)benzofuran-2-carboxamide]	20 to 50 µM

Same assay, conditions: 10′ pre-incubation; Table 3; read-out: Kat6A Biochemical assay: IC50

Compound	IC50
COc1cc(Cn2ccc(CN)n2)cc2onc(NS(=O)(=O)CC3CCCCC3)c12 [compound 128]	20 to 50 µM
COc1cc(Cn2cc(C#N)cn2)cc2onc(NS(=O)(=O)CC3CCCCC3)c12 [compound 126, N-(6-((4-cyano-1H-pyrazol-1-yl)methyl)-4-methoxybenzo[d]isoxazol-3-yl)-1-cyclohexylmethanesulfonamide]	≤ 10 µM

Same assay, conditions: 60′ pre-incubation; Table 2; read-out: Kat6A biochemical assay: IC50

Compound	IC50
C=C(F)C(=O)NCc1ccn(Cc2cc(OC)c3c(NS(=O)(=O)CC4CCCCC4)noc3c2)n1 [Synthetic Example 23, N-((1-((3-((cyclohexylmethyl)sulfonamido)-4-methoxybenzo[d]isoxazol-6-yl)methyl)-1H-pyrazol-3-yl)methyl)-2-fluoroacrylamide]	≤ 10 µM
C=CC(=O)N1CCN(c2ccccc2-c2cc(OC)c3c(NS(=O)(=O)c4c(OC)cccc4OC)noc3c2)CC1 [Synthetic Example 58, N-(6-(2-(4-acryloylpiperazin-1-yl)phenyl)-4-methoxybenzo[d]isoxazol-3-yl)-2,6-dimethoxybenzenesulfonamide]	≤ 10 µM
C#CC(=O)NCc1cnn(Cc2cc(OC)n3c(NS(=O)(=O)c4ccccc4OC)nnc3c2)c1 [Synthetic Example 66, N-((1-((5-methoxy-3-((2-methoxyphenyl)sulfonamido)-[1,2,4]triazolo[4,3-a]pyridin-7-yl)methyl)-1H-pyrazol-4-yl)methyl)propiolamide]	≤ 10 µM
C#CC(=O)NC1CCN(Cc2cc(OC)c3c(NS(=O)(=O)c4ccccc4OC)noc3c2)C1 (stereo not shown) [Synthetic Example 48, N-(1-((4-methoxy-3-((2-methoxyphenyl)sulfonamido)benzo[d]isoxazol-6-yl)methyl)pyrrolidin-3-yl)propiolamide]	≤ 10 µM
C=CC(=O)N1CCC(c2ccnc(-c3cc(C)cc(C(=O)NNS(=O)(=O)c4ccccc4F)c3)c2)CC1 [Synthetic Example 41, N-(3-(4-(1-acryloylpiperidin-4-yl)pyridin-2-yl)-5-methylbenzoyl)-2-fluorobenzenesulfonohydrazide]	≤ 10 µM
COc1ccccc1S(=O)(=O)Nc1noc2cc(CN3CCC(C(=O)NCC#N)CC3)cc(OC)c12 [Synthetic Example 63, N-(cyanomethyl)-1-((4-methoxy-3-((2-methoxyphenyl)sulfonamido)benzo[d]isoxazol-6-yl)methyl)piperidine-4-carboxamide]	> 10 µM
C=CS(=O)(=O)NCc1ccn(Cc2cc(OC)c3c(NS(=O)(=O)c4ccccc4F)noc3c2)n1 [Synthetic Example 17, 2-fluoro-N-(4-methoxy-6-((3-(vinylsulfonamidomethyl)-1H-pyrazol-1-yl)methyl)benzo[d]isoxazol-3-yl)benzenesulfonamide]	≤ 10 µM
C=CS(=O)(=O)N1Cc2cnn(Cc3cc(OC)c4c(NS(=O)(=O)c5ccccc5OC)noc4c3)c2C1 [Synthetic Example 27A, 2-methoxy-N-(4-methoxy-6-((5-(vinylsulfonyl)-5,6-dihydropyrrolo[3,4-c]pyrazol-1(4H)-yl)methyl)benzo[d]isoxazol-3-yl)benzenesulfonamide]	≤ 10 µM
C#CC(=O)NCc1ccnc(-c2cc(C)cc(C(=O)NNS(=O)(=O)c3cccc(C(=O)NC)c3)c2)c1 [Synthetic Example 55, N-methyl-3-[[[3-methyl-5-[4-[(prop-2-ynoylamino)methyl]-2-pyridyl]benzoyl]amino]sulfamoyl] benzamide]	≤ 10 µM
C=CC(=O)NC1CCN(Cc2cc(OC)c3c(NS(=O)(=O)c4ccccc4OC)noc3c2)CC1 [Synthetic Example 49, N-(1-((4-methoxy-3-((2-methoxyphenyl)sulfonamido)benzo[d]isoxazol-6-yl)methyl)piperidin-4-yl)acrylamide]	≤ 10 µM
C#CC(=O)NCc1cnn(Cc2cc(OC)c3c(NS(=O)(=O)c4ccc(C(=O)O)cc4OC)noc3c2)c1 [Synthetic Example 65, 3-methoxy-4-(N-(4-methoxy-6-((4-(propiolamidomethyl)-1H-pyrazol-1-yl)methyl)benzo[d]isoxazol-3-yl)sulfamoyl)benzoic acid]	≤ 10 µM
C=CC(=O)NCc1ccn(Cc2cc(OC)c3c(NS(=O)(=O)c4ccccc4F)noc3c2)n1 [Synthetic Example 18, N-((1-((3-((2-fluorophenyl)sulfonamido)-4-methoxybenzo[d]isoxazol-6-yl)methyl)-1H-pyrazol-3-yl)methyl)acrylamide]	≤ 10 µM

Same assay, conditions: 60′ pre-incubation; Table 3; read-out: Kat6A Biochemical assay: IC50

Compound	IC50
C#CC(=O)N1CCN(c2cccc(-c3cc(OC)c4c(NS(=O)(=O)c5c(OC)cccc5OC)noc4c3)n2)CC1 [compound 96, 2,6-dimethoxy-N-(4-methoxy-6-(6-(4-propioloylpiperazin-1-yl)pyridin-2-yl)benzo[d]isoxazol-3-yl)benzenesulfonamide]	≤ 10 µM
COc1ccccc1S(=O)(=O)Nc1noc2cc(Cn3cc(CNS(=O)(=O)c4cc(F)c(F)c(F)c4)cn3)cc(OC)c12 [compound 80, 3,4,5-trifluoro-N-((1-((4-methoxy-3-((2-methoxyphenyl)sulfonamido)benzo[d]isozolol-6-yl)methyl)-1H-pyrazol-4-yl)methyl) benzenesulfonamide]	≤ 10 µM
C#CC(=O)N1CC[C@H](OCc2cc(OC)c3c(NS(=O)(=O)c4cc(CC)ccc4OC)noc3c2)C1 [compound 109, (S)-5-ethyl-2-methoxy-N-(4-methoxy-6-(((1-propioloylpyrrolidin-3-yl)oxy)methyl)benzo[d]isoxazol-3-yl) benzenesulfonamide]	≤ 10 µM
C#CC(=O)N1CCN(c2ncc(-c3cc(OC)c4c(NS(=O)(=O)c5c(OC)cccc5OC)noc4c3)s2)CC1 [compound 106, 2,6-dimethoxy-N-(4-methoxy-6-(2-(4-propioloylpiperazin-1-yl)thiazol-5-yl)benzo[d]isoxazol-3-yl) benzenesulfonamide]	≤ 10 µM
C=CS(=O)(=O)NCCOCc1cc(OC)c2c(NS(=O)(=O)c3cc(CC)ccc3OC)noc2c1 [compound 107]	≤ 10 µM
C#CC(=O)N1CCN(c2cnc(-c3cc(OC)c4c(NS(=O)(=O)c5c(OC)cccc5OC)noc4c3)s2)CC1 [compound 102, 2,6-dimethoxy-N-(4-methoxy-6-(5-(4-propioloylpiperazin-1-yl)thiazol-2-yl)benzo[d]isoxazol-3-yl)benzenesulfonamide]	≤ 10 µM
C#CC(=O)N1CCN(c2cccc(-c3cc(OC)c4c(NS(=O)(=O)c5c(OC)cccc5OC)noc4n3)c2)CC1 [compound 113, 2,6-dimethoxy-N-(4-methoxy-6-(3-(4-propioloylpiperazin-1-yl)phenyl)isoxazolo[5,4-b]pyridin-3-yl)benzenesulfonamide]	≤ 10 µM
C#CC(=O)N1CCN(c2cccc(-c3cc(OC)c4c(NS(=O)(=O)c5cc(CC)ccc5OC)noc4n3)c2)CC1 [compound 114, 25-ethyl-2-methoxy-N-(4-methoxy-6-(3-(4-propioloylpiperazin-1-yl)phenyl)isoxazolo[5,4-b]pyridin-3-yl)benzenesulfonamide]	> 10 µM
C#CC(=O)N1CCc2nn(Cc3cc(OC)c4c(NS(=O)(=O)c5cc(CC)ccc5OC)noc4c3)cc2C1 [105b, 5-ethyl-2-methoxy-N-(4-methoxy-6-((5-propioloyl-4,5,6,7-tetrahydro-2H-pyrazolo[4,3-c]pyridin-2-yl)methyl)benzo[d]isoxazol-3-yl)benzenesulfonamide]	≤ 10 µM
C=CS(=O)(=O)NC1CCN(Cc2cc(OC)c3c(NS(=O)(=O)c4ccccc4OC)noc3c2)CC1 [compound 77, 2-methoxy-N-(4-methoxy-6-((4-(vinylsulfonamido)piperidin-1-yl)methyl)benzo[d]isoxazol-3-yl)benzenesulfonamide]	≤ 10 µM
C=CC(=O)N1CCC(c2ccccc2-c2cc(OC)c3c(NS(=O)(=O)c4c(OC)cccc4OC)noc3c2)C1 (stereo not shown) [compound 75, N-(6-(2-(1-acryloylpyrrolidin-3-yl)phenyl)-4-methoxybenzo[d]isoxazol-3-yl)-2,6-dimethoxybenzenesulfonamide]	> 10 µM
C#CC(=O)NCc1cnn(-c2cc(C)nc(C(=O)NNS(=O)(=O)c3ccccc3F)c2)c1 [compound 91, N-((1-(2-(2-((2-fluorophenyl)sulfonyl) hydrazine-1-carbonyl)-6-methylpyridin-4-yl)-1H-pyrazol-4-yl)methyl) propiolamide]	≤ 10 µM
